In publication PMC12807533 (Science (New York, N.Y.), 2025):

What was measured:
[1] = system: T1, XanP (His-XanP)
T1 construct: gene XOC_0142

[2] = system: AvrBs2 (AvrBs2-FLAG)
Chain of AvrBs2 (AvrBs2-FLAG) (G7TIV7 1-714): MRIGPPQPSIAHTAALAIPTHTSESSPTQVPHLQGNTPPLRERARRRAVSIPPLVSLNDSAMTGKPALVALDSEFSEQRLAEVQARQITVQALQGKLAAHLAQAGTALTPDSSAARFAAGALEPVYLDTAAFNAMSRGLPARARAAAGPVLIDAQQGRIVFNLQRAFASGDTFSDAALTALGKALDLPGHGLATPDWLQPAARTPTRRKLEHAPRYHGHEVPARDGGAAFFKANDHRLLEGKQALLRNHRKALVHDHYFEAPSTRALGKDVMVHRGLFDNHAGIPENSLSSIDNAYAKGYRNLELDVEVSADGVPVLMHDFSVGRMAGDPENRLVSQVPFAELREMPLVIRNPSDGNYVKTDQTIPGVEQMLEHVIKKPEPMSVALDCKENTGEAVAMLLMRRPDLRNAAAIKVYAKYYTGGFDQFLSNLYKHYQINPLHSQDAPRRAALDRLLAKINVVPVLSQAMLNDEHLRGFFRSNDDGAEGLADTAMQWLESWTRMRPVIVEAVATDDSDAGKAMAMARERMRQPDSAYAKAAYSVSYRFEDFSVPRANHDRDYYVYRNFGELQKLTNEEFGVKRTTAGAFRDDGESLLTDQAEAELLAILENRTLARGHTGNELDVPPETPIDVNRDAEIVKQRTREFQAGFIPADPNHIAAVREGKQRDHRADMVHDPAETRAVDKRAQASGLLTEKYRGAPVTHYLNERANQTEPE

T1 sequence (G7TIV3 32-261 limits assumed): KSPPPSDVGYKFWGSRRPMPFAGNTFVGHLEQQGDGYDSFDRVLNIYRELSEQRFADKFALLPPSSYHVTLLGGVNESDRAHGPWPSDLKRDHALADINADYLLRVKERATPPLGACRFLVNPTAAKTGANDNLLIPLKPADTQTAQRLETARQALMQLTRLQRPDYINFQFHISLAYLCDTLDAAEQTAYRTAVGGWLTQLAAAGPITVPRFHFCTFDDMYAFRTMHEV

Compound | TLC of hydrolysis products [1] | TLC and HILIC-ESI-MS of in vitro xanthosan synthesis [2]
O=P(O)(O)O[C@H]1O[C@H](CO)[C@H](O)[C@H](O)[C@H]1O [Gal-1-P] | the other product migrated similarly to Gal-1-P, but not Gal-6-P | 
O=P1(O)OC[C@H]2O[C@H](OP(=O)(O)OC[C@H]3O[C@H](O1)[C@H](O)[C@@H](O)[C@H]3O)[C@H](O)[C@@H](O)[C@H]2O [xanthosan, bis-(1,6)-cyclic dimeric α-D-galactose-phosphate] |  | AvrBs2 converts UDP-α-D-galactose into xanthosan
